Experimental data: US20260132128A1, “COMPOUND FOR RECOVERING P53 MUTATION FUNCTION AND USE THEREOF” (SHENZHEN ZHONGGE BIOLOGICAL TECHNOLOGY CO., LTD., priority 2022, published 2026)
Marks after values point to notes of the source that are not given here.

Legend:
p53 Y220C [1] = biological target: T1, p53 Y220C (Homo sapiens, UniProt P04637, Y220C); experiment: DNA binding test (HTRF): binding of P53Y220C protein to DNA; type: biochemical; conditions: multiple ratio of EC50 of the compound to the reference compound, DNA binding test
T1 construct: a truncated mutant containing only amino acids 94-312 of p53; made in house; host or cells: E. coli
Protocol: (§1) In order to detect the ability of the aforementioned compounds to increase the binding of P53Y220C protein to DNA, the binding activity of p53 Y220C was measured by homogeneous time-resolved fluorescence (HTRF). Recombinant His-tagged p53 Y220C for HTRF measurement was expressed in bacteria E. coli. The recombinant protein was a truncated mutant containing only amino acids 94-312 of p53, and its sequence was […] […] VEGNLR […] TFRh[…] […]. The sense strand of the DNA double strand was 5′-[…]-3′, with a biotin tag at the 5′ end for activity assay, and the antisense strand was 5′-[…]-3′ 40 mL of assay buffer (20 mM Tris HCL, pH 7.5, 50 mM NaCl, 2 mM MgCl2, 0.02% Tween 20, 0.01% BSA, 1 mM DTT) was prepared. 10 mM compound was prepared and subjected to 3-fold dilution to obtain 10 dose gradient dilutions of the compound. 20 nL of the compound was added to a 384-well assay plate (PerkinElmer 6007299) using an Echo 655 Liquid Handler. P53Y220C protein was dissolved in assay buffer to reach a final concentration of 150 nM, and 5 μL thereof was added to each well, and incubated at room temperature for 5 min. DNA was dissolved in assay buffer to reach a final concentration of 150 nM, and 5 μL thereof was added to each well, and incubated at room temperature for 15 min. Anti 6HIS-XL665 (Cisbio 61HISXLB) was dissolved in assay buffer to reach a final concentration of 20 nM, and 5 μL thereof was added to each well. Streptavidin-Eu cryptate (Cisbio 610SAKLA) was dissolved in assay buffer to reach a final concentration of 0.625 nM, and 5 μL thereof was added to each well, and incubated at 27° C. for 1 hour. The plate was then read for signal values on an Envision (PerkinElmer 2105-0020) plate reader at 665 nm and 615 nm, respectively. […] Activation rate={(A-C)/(C)}*100%, A=(signal value at 665 nm/signal value at 615 nm); C=average signal of negative control (wherein, negative control referred to 0.1% DMSO).

p53 Y220C [2] = biological target: T2, p53 Y220C (Homo sapiens, UniProt P04637, P309S/R273H/Y220C); experiment: as above; type: biochemical; conditions: HTRF, activation of p53 Y220C (aa 94-312) binding to biotin DNA
T2 construct: a truncated mutant containing only amino acids 94-312 of p53; made in house; host or cells: E. coli
Protocol: as §1

NUGC-3 cells = experiment: NUGC-3 cell proliferation assay (CTG); type: cell-based, human; conditions: for GI50: 6 days, CTG; for Compound GI50 (nM)/Reference compound GI50 (nM): multiple ratio of GI50 of the compound to the reference compound
Protocol: In order to detect the inhibitory effect of the aforementioned compounds on the proliferation ability of NUGC-3 cells, 250 NUGC-3 cells (Nanjing Cobioer Biosciences Co., Ltd., CBP60492) were seeded into a 384-well plate (Corning 3765), 35 μL per well, and incubated overnight in a constant temperature incubator at 37° C. and 5% CO2. Then, 40 nL of the compound was added to the 384-well plate using an Echo 655 Liquid Handler, with a maximum final concentration of 10 μM, 1:3 serial dilutions, and a total of 10 doses. The culture was performed at 37° C. and 5% CO2 for 6 days. The plate was taken out from the incubator and equilibrated at room temperature for 10 minutes. 20 μL of CTG (Promage G7572) was added to each well of the plate according to the platemap. The plate was centrifuged at 1000 rpm for 1 min. The lysis of cells was induced by mixing on a shaker for 2 min. The plate was centrifuged at 1000 rpm for 1 min. Incubation was performed at room temperature for 10 min to stabilize luminescence signals. Luminescence values were recorded by Envision (PerkinElmer 2105-0020). GraphPad 9.0 was used to fit the inhibition rate and compound concentration into a nonlinear regression curve (dose response-variable slope) to calculate GI50, inhibition rate={1−(A−B)/(C−B)}*100%, A=signal value of compound; B=average signal of blank control; C=average signal of negative control (wherein negative control was 0.1% DMSO).

SMILES | Compound EC50 (nM)/Reference compound EC50 (nM) (p53 Y220C [1]) | EC50 (p53 Y220C [2]) [nM] | GI50 (NUGC-3 cells; Homo sapiens, NUGC-3, 144 h) [nM] | Compound GI50 (nM)/Reference compound GI50 (nM) (NUGC-3 cells) | GI50 (NUGC-3 cells) [nM]
[2H]C([2H])([2H])NC(=O)c1ccc(NCC#Cc2cc3c(NC4CCC(N5CC6(COC6)C5)CC4F)cccn3c2CC(F)(F)F)c(OCF)c1 (centres unmarked) [Compound 78d] | A (A: EC50 of the compound≤EC50 of the reference compound) | < 100 | < 1000 | A (A: GI50 of the compound ≤ GI50 of the reference compound) | –
COc1cc(S(=N)(=O)C2CC2)ccc1NCC#Cc1cc2c(NC3CCN(C)CC3F)cccc2n1CC(F)(F)F (single isomer, unassigned) [Compound 39d] | A (A: EC50 of the compound≤EC50 of the reference compound) | < 100 | – | A (A: GI50 of the compound ≤ GI50 of the reference compound) | –
COCCNC(=O)c1ccc(NCC#Cc2nc3c(N[C@@H]4CC[C@@H](N5CC6(COC6)C5)C[C@@H]4F)cccn3c2CC(F)(F)F)c(OC)c1 [Compound 52] | A (A: EC50 of the compound≤EC50 of the reference compound) | < 100 | – | C (C: GI50 of the compound ≥ 3 * GI50 of the reference compound) | –
Cc1cc[nH]c1C(=O)NCC#Cc1nc2c(NC3CCN(C)CC3)cccn2c1CC(F)(F)F [Compound 28] | C (C: EC50 of the compound≥3*EC50 of the reference compound) | 500 to 1000 | – | C (C: GI50 of the compound ≥ 3 * GI50 of the reference compound) | –
CNC(=O)c1ccc(NCC#Cc2nc3c(NC4CCC(F)(F)CC4)cccn3c2CC(F)(F)F)c(OC)c1 [Compound 6] | C (C: EC50 of the compound≥3*EC50 of the reference compound) | 100 to 500 | ≥ 5000 | C (C: GI50 of the compound ≥ 3 * GI50 of the reference compound) | –
COc1cc(C#N)ccc1NCC#Cc1nc2c(NC3CCN(C)CC3)cccn2c1CC(F)(F)F [Compound 11] | B (B: EC50 of the reference compound<EC50 of the compound≤3.0*EC50 of the reference compound) | 100 to 500 | – | C (C: GI50 of the compound ≥ 3 * GI50 of the reference compound) | –
CNC(=O)c1ccc(NCC#Cc2nc3c(NC4CCC(N5CC6CCC(C5)O6)CC4)cccn3c2CC(F)(F)F)c(OC)c1 (centres unmarked) [Compound 34] | C (C: EC50 of the compound≥3*EC50 of the reference compound) | 100 to 500 | – | C (C: GI50 of the compound ≥ 3 * GI50 of the reference compound) | –
CCNC(=O)c1ccc(NCC#Cc2nc3c(N[C@@H]4CC[C@@H](N5CC6(COC6)C5)C[C@@H]4F)cccn3c2CC(F)(F)F)c(OC)c1 [Compound 50] | A (A: EC50 of the compound≤EC50 of the reference compound) | < 100 | – | C (C: GI50 of the compound ≥ 3 * GI50 of the reference compound) | –
CNC(=O)c1ccc(NCC#Cc2nc3c(NC4CCN(C(C)C)CC4F)cccn3c2CC(F)(F)F)c(OC)c1 (centres unmarked) [Compound 20] | C (C: EC50 of the compound≥3*EC50 of the reference compound) | 500 to 1000 | 1000 to 5000 | C (C: GI50 of the compound ≥ 3 * GI50 of the reference compound) | –
CNC(=O)c1ccc(NCC#Cc2nc3c(NC4CCC(N5CC6(COC6)C5)CC4F)cccn3c2CC(F)(F)F)c(OC)c1 (single isomer, unassigned) [Compound 35-6h] | B (B: EC50 of the reference compound<EC50 of the compound≤3.0*EC50 of the reference compound) | < 100 | – | C (C: GI50 of the compound ≥ 3 * GI50 of the reference compound) | 1000 to 5000
COc1cc(C(=O)N2CCC2)ccc1NCC#Cc1nc2c(N[C@@H]3CC[C@@H](N4CC5(COC5)C4)C[C@@H]3F)cccn2c1CC(F)(F)F [Compound 51] | A (A: EC50 of the compound≤EC50 of the reference compound) | < 100 | – | C (C: GI50 of the compound ≥ 3 * GI50 of the reference compound) | –
[2H]C([2H])([2H])NC(=O)c1ccc(NCC#Cc2cc3c(NC4CCC(N5CCOCC5)CC4F)cccn3c2CC(F)(F)F)c(OC([2H])([2H])[2H])c1 (single isomer, unassigned) [Compound 73d] | B (B: EC50 of the reference compound<EC50 of the compound≤3.0*EC50 of the reference compound) | < 100 | < 1000 | A (A: GI50 of the compound ≤ GI50 of the reference compound) | –
CN1CCC(Nc2cccn3c(CC(F)(F)F)c(-c4nnc(CNC(=O)c5cnn(Cc6ccccc6)c5)s4)nc23)CC1 [Compound 23] | B (B: EC50 of the reference compound<EC50 of the compound≤3.0*EC50 of the reference compound) | 100 to 500 | 1000 to 5000 | C (C: GI50 of the compound ≥ 3 * GI50 of the reference compound) | –
CNC(=O)c1ccc(NCC#Cc2nc3c(N[C@@H]4CCN(CCOC)C[C@@H]4F)cccn3c2CC(F)(F)F)c(OC)c1 [Compound 21] | C (C: EC50 of the compound≥3*EC50 of the reference compound) | 100 to 500 | 1000 to 5000 | C (C: GI50 of the compound ≥ 3 * GI50 of the reference compound) | –
CN1CCC(Nc2cccn3c(CC(F)(F)F)c(-c4nnc(CNC(=O)c5cnn(C6CCOC6)c5)s4)nc23)CC1 (centres unmarked) [Compound 22] | B (B: EC50 of the reference compound<EC50 of the compound≤3.0*EC50 of the reference compound) | 100 to 500 | ≥ 5000 | C (C: GI50 of the compound ≥ 3 * GI50 of the reference compound) | –
CN1CCC(Nc2cccn3c(CC(F)(F)F)c(-c4noc(CNC(=O)c5ccn(C(C)(C)C)c5)n4)nc23)CC1 [Compound 17] | C (C: EC50 of the compound≥3*EC50 of the reference compound) | 500 to 1000 | – | C (C: GI50 of the compound ≥ 3 * GI50 of the reference compound) | –
COc1cc(P(C)(C)=O)ccc1NCC#Cc1nc2c(N[C@@H]3CCN(C)C[C@@H]3F)cccn2c1CC(F)(F)F [Compound 14] | B (B: EC50 of the reference compound<EC50 of the compound≤3.0*EC50 of the reference compound) | 100 to 500 | 1000 to 5000 | B (B: GI50 of the reference compound < GI50 of the compound ≤ 3.0 * GI50 of the reference compound) | –
CN1CCC(Nc2cccn3c(CC(F)(F)F)c(-c4ncc(CNC(=O)c5ccn(C(C)(C)C)c5)s4)nc23)CC1 [Compound 24] | C (C: EC50 of the compound≥3*EC50 of the reference compound) | 100 to 500 | 1000 to 5000 | C (C: GI50 of the compound ≥ 3 * GI50 of the reference compound) | –
CNC(=O)c1ccc(NCC#Cc2nc3c(NC4CCN(CC(O)COC)CC4)cccn3c2CC(F)(F)F)c(OC)c1 (centres unmarked) [Compound 7] | C (C: EC50 of the compound≥3*EC50 of the reference compound) | 100 to 500 | 1000 to 5000 | C (C: GI50 of the compound ≥ 3 * GI50 of the reference compound) | –
